# Measured values reported in US7001907B2, “Peptide-containing α-ketoamide cysteine and serine protease inhibitors” (Cephaon, Inc., priority 1997, dated 2006).
# Biological target: T1, Recombinant human calpain I (Homo sapiens, UniProt P07384)
# T1 construct: made in house
# T1 sequence (P07384 1-714): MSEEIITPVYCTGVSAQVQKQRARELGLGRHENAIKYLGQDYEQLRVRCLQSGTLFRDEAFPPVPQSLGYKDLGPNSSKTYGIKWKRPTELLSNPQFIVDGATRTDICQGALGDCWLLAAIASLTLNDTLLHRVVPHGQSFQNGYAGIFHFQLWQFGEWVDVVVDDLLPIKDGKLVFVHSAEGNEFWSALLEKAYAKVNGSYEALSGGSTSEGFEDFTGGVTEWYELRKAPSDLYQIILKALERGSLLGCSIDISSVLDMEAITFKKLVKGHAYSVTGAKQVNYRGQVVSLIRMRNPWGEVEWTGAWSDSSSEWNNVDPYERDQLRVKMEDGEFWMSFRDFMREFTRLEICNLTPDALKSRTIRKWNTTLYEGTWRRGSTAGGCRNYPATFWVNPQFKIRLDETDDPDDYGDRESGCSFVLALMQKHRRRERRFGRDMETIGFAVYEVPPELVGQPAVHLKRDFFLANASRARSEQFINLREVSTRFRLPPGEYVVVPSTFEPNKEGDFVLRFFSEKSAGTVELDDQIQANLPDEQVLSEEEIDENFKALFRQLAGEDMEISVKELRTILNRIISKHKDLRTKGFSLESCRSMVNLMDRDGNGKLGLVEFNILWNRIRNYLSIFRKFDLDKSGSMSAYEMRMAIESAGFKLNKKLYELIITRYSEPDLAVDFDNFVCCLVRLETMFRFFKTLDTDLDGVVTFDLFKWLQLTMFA
# T1 sequence (P04632 1-268 partner): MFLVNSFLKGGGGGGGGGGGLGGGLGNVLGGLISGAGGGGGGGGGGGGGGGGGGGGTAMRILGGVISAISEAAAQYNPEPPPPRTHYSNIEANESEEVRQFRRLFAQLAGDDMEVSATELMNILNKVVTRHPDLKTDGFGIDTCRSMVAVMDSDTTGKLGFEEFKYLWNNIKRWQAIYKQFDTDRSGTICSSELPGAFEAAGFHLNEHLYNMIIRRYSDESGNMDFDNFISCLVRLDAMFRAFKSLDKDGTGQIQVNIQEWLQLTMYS
# Assay: Inhibition of cysteine protease activity: calpain I, Succ-Leu-Tyr-MNA substrate hydrolysis
# Format: biochemical
# Settings: Table 2, linear α-ketoamides
# Method: To evaluate inhibitory activity, stock solutions (40 times concentrated) of each compound to be tested were prepared in 100% anhydrous DMSO and 5 μl of each inhibitor preparation were aliquoted into each of three wells of a 96-well plate. Recombinant human calpain I, prepared by the method of Meyer et al. (Biochem. J. 1996, 314: 511–519; incorporated herein by reference in its entirety), was diluted into assay buffer (i.e., 50 mM Tris, 50 mM NaCl, 1 mM EDTA, 1 mM EGTA, and 5 mM β-mercaptoethanol, pH 7.5, including 0.2 mM Succ-Leu-Tyr-MNA), and 175 μl was aliquoted into the same wells containing the independent inhibitor stocks as well as to positive control wells containing 5 μl DMSO, but no compound. To start the reaction, 20 μl of 50 mM CaCl2 in assay buffer was added to all wells of the plate, excepting three, which were used as background signal baseline controls. Substrate hydrolysis was monitored every 5 minutes for a total of 30 minutes. Substrate hydrolysis in the absence of inhibitor was linear for up to 15 minutes.
# Inhibition of calpain I activity was calculated as the percent decrease in the rate of substrate hydrolysis in the presence of inhibitor relative to the rate in its absence. Comparison between the inhibited and control rates was made within the linear range for substrate hydrolysis. The IC50s of inhibitors (concentration yielding 50% inhibition) were determined from the percent decrease in rates of substrate hydrolysis in the presence of five to seven different concentrations of the test compound. The results were plotted as percent inhibition versus log inhibitor concentration, and the IC50 was calculated by fitting the data to the four-parameter logistic equation shown below using the program GraphPad Prism (GraphPad Software, Inc., San Diego, Calif.). y=d+[(a−d)/(1+(x/c)^b)]
# The parameters a, b, c, and d are defined as follows: a is % inhibition in the absence of inhibitor, b is the slope, c is the IC50, and d is the % inhibition at an infinite concentration of inhibitor.
row,SMILES,IC50
1,CS(=O)(=O)NCCNC(=O)C(=O)[C@H](Cc1ccccc1)NC(=O)[C@@H](COCc1ccccc1)NS(C)(=O)=O [Compound 35],91 nM
2,CS(=O)(=O)N[C@H](COCc1ccccc1)C(=O)N[C@@H](Cc1ccccc1)C(=O)C(=O)NCCNS(=O)(=O)c1cccnc1 [Compound 31],29 nM
3,CS(=O)(=O)N[C@H](COCc1ccccc1)C(=O)N[C@@H](Cc1ccccc1)C(=O)C(=O)NCCNS(=O)(=O)c1ccccc1 [Compound 9],16 nM
4,Cn1nc(-c2ccc(S(=O)(=O)NCCNC(=O)C(=O)C(Cc3ccccc3)NC(=O)C(COCc3ccccc3)NS(C)(=O)=O)s2)cc1C(F)(F)F (mixture of isomers) [Compound 34],25 nM
5,CSc1nccc(-c2ccc(S(=O)(=O)NCCNC(=O)C(=O)[C@H](Cc3ccccc3)NC(=O)[C@@H](COCc3ccccc3)NS(C)(=O)=O)s2)n1 [Compound 33],17 nM
6,CS(=O)(=O)N[C@H](COCc1ccccc1)C(=O)N[C@@H](Cc1ccccc1)C(=O)C(=O)NCCNS(=O)(=O)CCc1ccncc1 [Compound 46],144 nM
7,CS(=O)(=O)N[C@H](COCc1ccccc1)C(=O)N[C@@H](Cc1ccccc1)C(=O)C(=O)NCCNS(=O)(=O)c1ccc(S(=O)(=O)c2ccccc2)s1 [Compound 37],18 nM
8,CS(=O)(=O)N[C@H](COCc1ccccc1)C(=O)N[C@@H](Cc1ccccc1)C(=O)C(=O)NCCNS(=O)(=O)c1ccc(-c2ccc(N)cc2)cc1 [Compound 40],63 nM

# Same assay, conditions: Table 2; 10 μM compound; values in brackets marked **
row,SMILES,Percent inhibition @ 10 μM (Calpain)
1,O=C(NCCNS(=O)(=O)c1ccccc1)C(=O)[C@H](Cc1ccccc1)NC(=O)[C@@H]1CCCN1S(=O)(=O)c1ccccc1 [Compound 13],(78%)

# Same assay, conditions: Table 3; concentration not given
row,SMILES,"Calpain percent inhibition, value in brackets marked **"
1,CN(CCNC(=O)C(=O)[C@H](Cc1ccccc1)NC(=O)[C@@H](COCc1ccccc1)NS(C)(=O)=O)S(=O)(=O)c1ccccc1 [Compound 50],(100%)

# Same assay, conditions: Table 4, α-ketoamides
row,SMILES,IC50
1,CN1CCN(Cc2cccc(-c3ccc(S(=O)(=O)NCCNC(=O)C(=O)[C@H](Cc4ccccc4)NC(=O)[C@@H](COCc4ccccc4)NS(C)(=O)=O)s3)c2)CC1 [Compound 58],21 nM
2,CN(C)c1cccc2c(S(=O)(=O)NCCNC(=O)C(=O)[C@H](Cc3ccccc3)NC(=O)[C@@H](COCc3ccccc3)NS(C)(=O)=O)cccc12 [Compound 86],49 nM
3,CS(=O)(=O)NC(COCc1ccccc1)C(=O)NC(Cc1ccccc1)C(=O)C(=O)NCCNS(=O)(=O)c1ccc(-c2cccc(F)c2)s1 (mixture of isomers) [Compound 72],18 nM
4,C[C@H](OCc1ccccc1)[C@@H](NS(C)(=O)=O)C(=O)N[C@@H](Cc1ccccc1)C(=O)C(=O)NCCNS(=O)(=O)c1ccc(-c2ccccn2)s1 [Compound 66],12 nM
5,CS(=O)(=O)NC(COCc1ccccc1)C(=O)NC(Cc1ccccc1)C(=O)C(=O)NCCCCCNS(=O)(=O)c1ccc(-c2ccccn2)s1 (mixture of isomers) [Compound 92],12 nM
6,CS(=O)(=O)N[C@H](COCc1ccccc1)C(=O)N[C@@H](Cc1ccccc1)C(=O)C(=O)NCCCS(=O)(=O)N1CCOCC1 [Compound 81],124 nM
7,CS(=O)(=O)N[C@H](COCc1ccccc1)C(=O)N[C@@H](Cc1ccccc1)C(=O)C(=O)NCCNS(=O)(=O)c1cc2ccccc2s1 [Compound 87],23 nM
8,CS(=O)(=O)N[C@H](COCc1ccccc1)C(=O)N[C@@H](Cc1ccccc1)C(=O)C(=O)NCCNS(=O)(=O)c1ccc(-c2cccc(CN3CCCCC3)c2)s1 [Compound 95],30 nM
9,CS(=O)(=O)NC(COCc1ccccc1)C(=O)NC(Cc1ccccc1)C(=O)C(=O)NCCNS(=O)(=O)c1ccc(-c2cccc([N+](=O)[O-])c2)s1 (mixture of isomers) [Compound 74],15 nM
10,CS(=O)(=O)N[C@H](COCc1ccccc1)C(=O)N[C@@H](Cc1ccccc1)C(=O)C(=O)NCCCS(=O)(=O)Nc1ccc(C(F)(F)F)cc1 [Compound 63],23 nM
11,Cc1cccc(-c2ccc(S(=O)(=O)NCCNC(=O)C(=O)C(Cc3ccccc3)NC(=O)C(COCc3ccccc3)NS(C)(=O)=O)s2)c1 (mixture of isomers) [Compound 75],36 nM
12,CS(=O)(=O)N[C@H](COCc1ccccc1)C(=O)N[C@@H](Cc1ccccc1)C(=O)C(=O)NCCNS(=O)(=O)c1ccc(-c2cccc(CN3CCC3)c2)s1 [Compound 106],44 nM
13,CC(=O)Nc1cccc(-c2ccc(S(=O)(=O)NCCNC(=O)C(=O)C(Cc3ccccc3)NC(=O)C(COCc3ccccc3)NS(C)(=O)=O)s2)c1 (mixture of isomers) [Compound 76],11 nM
14,CS(=O)(=O)N[C@H](COCc1ccccc1)C(=O)N[C@@H](Cc1ccccc1)C(=O)C(=O)NCCNS(=O)(=O)c1ccc(-c2ccc(C=O)cc2)s1 [Compound 90],17 nM
15,CS(=O)(=O)N[C@H](COCc1ccccc1)C(=O)N[C@@H](Cc1ccccc1)C(=O)C(=O)NCCNS(=O)(=O)c1ccc(-c2cccc(CN3CCSCC3)c2)s1 [Compound 114],33 nM
16,CS(=O)(=O)N[C@H](COCc1ccccc1)C(=O)N[C@@H](Cc1ccccc1)C(=O)C(=O)NCCCS(=O)(=O)NN1CCOCC1 [Compound 80],169 nM
17,CS(=O)(=O)NC(C(=O)NC(Cc1ccccc1)C(=O)C(=O)NCCNS(=O)(=O)c1ccccc1)c1ccccc1 (mixture of isomers) [Compound 69],80 nM

# Same assay, conditions: Table 5, achiral P2 mimetic α-ketoamides
row,SMILES,IC50
1,O=C(NCCNS(=O)(=O)c1ccc(-c2ccccn2)s1)C(=O)[C@H](Cc1ccccc1)NC(=O)c1c(F)cccc1F [Compound 120],20 nM
2,COc1cccc(OC)c1C(=O)N[C@@H](Cc1ccccc1)C(=O)C(=O)NCCNS(=O)(=O)c1ccc(-c2ccon2)s1 [Compound 138],4000 nM
3,COc1ccc(Cl)c(C(=O)N[C@@H](Cc2ccccc2)C(=O)C(=O)NCCNS(=O)(=O)c2ccc(-c3ccccn3)s2)c1 [Compound 125],65 nM
4,O=C(NCCNS(=O)(=O)c1ccc(-c2cccc(CN3CCOCC3)c2)s1)C(=O)[C@H](Cc1ccccc1)NC(=O)c1c(Cl)cccc1Cl [Compound 131],29 nM
5,N#Cc1cccc(-c2ccc(S(=O)(=O)NCCNC(=O)C(=O)[C@H](Cc3ccccc3)NC(=O)c3c(F)cccc3F)s2)c1 [Compound 135],22 nM
6,O=C(NCCNS(=O)(=O)c1ccc(-c2ccon2)s1)C(=O)[C@H](Cc1ccccc1)NC(=O)c1c(F)cccc1F [Compound 136],62 nM
7,N#Cc1cccc(-c2ccc(S(=O)(=O)NCCNC(=O)C(=O)[C@H](Cc3ccccc3)NC(=O)CCC3CCCC3)s2)c1 [Compound 151],420 nM
8,O=C(NCCNS(=O)(=O)c1ccc(-c2ccccn2)s1)C(=O)[C@H](Cc1ccccc1)NC(=O)c1c(Cl)cccc1Cl [Compound 118],36 nM
9,Cc1cccc(C)c1C(=O)N[C@@H](Cc1ccccc1)C(=O)C(=O)NCCNS(=O)(=O)c1ccc(-c2ccccn2)s1 [Compound 127],178 nM
10,CC(C)CCC(=O)N[C@@H](Cc1ccccc1)C(=O)C(=O)NCCNS(=O)(=O)c1ccc(-c2ccccn2)s1 [Compound 145],29 nM
11,O=C(NCCNS(=O)(=O)c1ccc(-c2ccccn2)s1)C(=O)[C@H](Cc1ccccc1)NC(=O)c1ccccc1 [Compound 117],800 nM
12,N#Cc1cccc(-c2ccc(S(=O)(=O)NCCNC(=O)C(=O)[C@H](Cc3ccccc3)NC(=O)c3c(Cl)cccc3Cl)s2)c1 [Compound 133],11 nM
13,CC(C)c1ccccc1C(=O)N[C@@H](Cc1ccccc1)C(=O)C(=O)NCCNS(=O)(=O)c1ccc(-c2ccon2)s1 [Compound 139],168 nM
